How the values were obtained:
[1] = target: T1, Glucocorticoid Receptor (GR) (Homo sapiens, UniProt P04150); experiment: GR Fluorescence Polarization Assay (PolarScreen Glucocorticoid Receptor Competitor Assay, Red); details: IC50 class ranges, read-out: GR binding
T1 construct: purchased Invitrogen P2893
T1 sequence (P04150 1-777): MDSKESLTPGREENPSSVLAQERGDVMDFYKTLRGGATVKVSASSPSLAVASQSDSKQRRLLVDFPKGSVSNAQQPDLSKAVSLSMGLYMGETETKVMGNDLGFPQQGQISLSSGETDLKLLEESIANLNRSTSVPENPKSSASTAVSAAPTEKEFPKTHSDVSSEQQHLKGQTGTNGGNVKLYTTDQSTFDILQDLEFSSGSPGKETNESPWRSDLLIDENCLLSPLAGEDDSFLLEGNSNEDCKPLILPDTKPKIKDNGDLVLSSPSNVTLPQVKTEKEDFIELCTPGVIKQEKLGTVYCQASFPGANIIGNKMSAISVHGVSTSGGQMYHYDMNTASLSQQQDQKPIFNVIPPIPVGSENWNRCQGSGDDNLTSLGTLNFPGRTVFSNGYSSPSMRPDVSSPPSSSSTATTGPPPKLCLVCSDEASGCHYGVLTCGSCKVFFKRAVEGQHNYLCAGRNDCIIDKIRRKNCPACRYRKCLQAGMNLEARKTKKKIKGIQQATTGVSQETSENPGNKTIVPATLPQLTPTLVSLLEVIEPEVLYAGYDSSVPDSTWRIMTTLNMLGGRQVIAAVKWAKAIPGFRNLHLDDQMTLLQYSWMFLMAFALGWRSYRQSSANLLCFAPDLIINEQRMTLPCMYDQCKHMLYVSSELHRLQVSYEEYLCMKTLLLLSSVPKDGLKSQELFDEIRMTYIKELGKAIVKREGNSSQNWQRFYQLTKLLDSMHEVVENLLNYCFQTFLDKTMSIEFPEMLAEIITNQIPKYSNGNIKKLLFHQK
Procedure, shortened: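 Competitive fluorescence-polarization assay using a red fluorescent glucocorticoid tracer with human GR in kit buffer. Compounds serially diluted 1:4 in DMSO, incubated with tracer and GR overnight at 4° C, then polarization read.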

[2] = test system: IL-6 in A549 cells stimulated with IL-1β; experiment: A549 Cell Assay to Measure Inflammation Markers (inhibition of IL-1β-induced IL-6); assay type: cell-based; details: intrinsic activity, Emax class ranges; for A549 Emax: A549 Cell Assay to Measure Inflammation Markers; for Emax: Homo sapiens, A549, A549 Cell Assay to Measure Inflammation Markers
Protocol: A549 Cell Assay to Measure Inflammation Markers
Further dilution (1:250) of compound was made into assay medium and 50 μL/well diluted drug or DMSO/media control was applied to cells. After a 1 h pre-incubation in a temperature, CO2, and humidity controlled incubator, set to 37° C., 50 μL/well of 4 ng/mL IL-1β diluted in assay media, was applied to cultures. Assay plates, with a final volume of 200 μL/well and final concentrations of 0.1% DMSO and 1 ng/mL IL-1β were returned to incubator for a […] incubation period. Next, plates were spun at 183 g (1000 rpm in Beckman/Coulter Allegra 6KR centrifuge) for 10 min. Cell-free supernatant (150 μL/well) was collected and IL-6 was measured by MSD kit, following protocol of manufacturer, and using MSD SECTOR Imager 6000 instrument. […] Results were represented as IC50 and Emax values.

| Compound | IC50 [1] [nM] | A549 Emax [2] | Emax [2] [%] |
| --- | --- | --- | --- |
| Cn1nc(C2CC2)c2c1NCC(C)(C)SC2c1ccc(Cl)cc1F (single isomer, unassigned) [M.4, 4-(4-chloro-2-fluorophenyl)-3-cyclopropyl-1,6,6-trimethyl-4,6,7,8-tetrahydro-1H-pyrazolo[3,4-e][1,4]thiazepine] | < 100 | D (a compound with Emax<50%) |  |
| Cc1nn(CC(O)C(F)(F)F)c2c1C(c1ccc(Cl)cc1Cl)SC(C)(C)CN2 (single isomer, unassigned) [M.5, 3-(4-(2,4-dichlorophenyl)-3,6,6-trimethyl-4,6,7,8-tetrahydro-1H-pyrazolo[3,4-e][1,4]thiazepin-1-yl)-1,1,1-trifluoropropan-2-ol] | 1000 to 10000 |  | < 50 |
| Cc1cc(Cl)ccc1[C@H]1SC(C)(C)CNc2c1c(C)nn2C (single isomer, unassigned) [M.6] | < 100 |  | < 50 |
| Cc1cc(Cl)ccc1[C@@H]1SC(C)(C)CNc2c1c(C)nn2C (single isomer, unassigned) [M.7] | 1000 to 10000 |  | < 50 |
| Cc1ncccc1NC(=O)c1ccc(C2SC(C)(C)CNc3c2c(C)nn3C)c(Cl)c1 (single isomer, unassigned) [M.8, 3-chloro-N-(2-methylpyridin-3-yl)-4-(1,3,6,6-tetramethyl-4,6,7,8-tetrahydro-1H-pyrazolo[3,4-e][1,4]thiazepin-4-yl)benzamide] | 1000 to 10000 |  | < 50 |
| Cc1ncccc1NC(=O)c1ccc(C2SC(C)(C)CNc3c2c(C)nn3C)c(Cl)c1 (single isomer, unassigned) [M.9, 3-chloro-N-(2-methylpyridin-3-yl)-4-(1,3,6,6-tetramethyl-4,6,7,8-tetrahydro-1H-pyrazolo[3,4-e][1,4]thiazepin-4-yl)benzamide] | 100 to 1000 | D (a compound with Emax<50%) |  |
| Cc1cc(Cl)ccc1[C@H]1S[C@@H](CCO)CNc2c1c(-c1ccccn1)nn2C (single isomer, unassigned) [M.10, 2-(4-(4-chloro-2-methylphenyl)-1-methyl-3-(pyridin-2-yl)-4,6,7,8-tetrahydro-1H-pyrazolo[3,4-e][1,4]thiazepin-6-yl)ethanol] | 1000 to 10000 |  | < 50 |
| Cc1cc(Cl)ccc1[C@H]1S[C@H](CCO)CNc2c1c(-c1ccccn1)nn2C (single isomer, unassigned) [M.11, 2-(4-(4-chloro-2-methylphenyl)-1-methyl-3-(pyridin-2-yl)-4,6,7,8-tetrahydro-1H-pyrazolo[3,4-e][1,4]thiazepin-6-yl)ethanol] | 1000 to 10000 |  | < 50 |
| Cc1cc(Cl)ccc1[C@@H]1S[C@H](CCO)CNc2c1c(-c1ccccn1)nn2C (single isomer, unassigned) [M.12, 2-(4-(4-chloro-2-methylphenyl)-1-methyl-3-(pyridin-2-yl)-4,6,7,8-tetrahydro-1H-pyrazolo[3,4-e][1,4]thiazepin-6-yl)ethanol] | 100 to 1000 |  | < 50 |
| Cc1cc(Cl)ccc1[C@@H]1S[C@@H](CCO)CNc2c1c(-c1ccccn1)nn2C (single isomer, unassigned) [M.13, 2-(4-(4-chloro-2-methylphenyl)-1-methyl-3-(pyridin-2-yl)-4,6,7,8-tetrahydro-1H-pyrazolo[3,4-e][1,4]thiazepin-6-yl)ethanol] | < 100 |  | < 50 |
| Cc1cc(Cl)ccc1[C@H]1S[C@H](CCO)CNc2c1c(C)nn2C (single isomer, unassigned) [M.14, 2-[4-(4-chloro-2-methyl-phenyl)-1,3-dimethyl-4,6,7,8-tetrahydro-1H-pyrazolo[3,4-e][1,4]thiazepin-6-yl]-ethanol] | 100 to 1000 |  | > 70 |
| Cc1cc(Cl)ccc1[C@H]1S[C@@H](CCO)CNc2c1c(C)nn2C (single isomer, unassigned) [M.15, 2-[4-(4-chloro-2-methyl-phenyl)-1,3-dimethyl-4,6,7,8-tetrahydro-1H-pyrazolo[3,4-e][1,4]thiazepin-6-yl]-ethanol] | 100 to 1000 |  | > 70 |
| Cc1cc(Cl)ccc1[C@@H]1S[C@@H](CCO)CNc2c1c(C)nn2C (single isomer, unassigned) [M.16, 2-[4-(4-chloro-2-methyl-phenyl)-1,3-dimethyl-4,6,7,8-tetrahydro-1H-pyrazolo[3,4-e][1,4]thiazepin-6-yl]-ethanol] | 1000 to 10000 |  | < 50 |
| Cc1cc(Cl)ccc1[C@@H]1S[C@H](CCO)CNc2c1c(C)nn2C (single isomer, unassigned) [M.17, 2-[4-(4-chloro-2-methyl-phenyl)-1,3-dimethyl-4,6,7,8-tetrahydro-1H-pyrazolo[3,4-e][1,4]thiazepin-6-yl]-ethanol] | 100 to 1000 |  | < 50 |
| Cc1cc(C#N)ccc1C1SCCNc2c1c(-c1ccccn1)nn2C (single isomer, unassigned) [M.20, 3-methyl-4-(1-methyl-3-(pyridin-2-yl)-4,6,7,8-tetrahydro-1H-pyrazolo[3,4-e][1,4]thiazepin-4-yl)benzonitrile] | < 100 |  | > 70 |
| CCn1nc(-c2ccccn2)c2c1NCCSC2c1ccc(C#N)cc1C (single isomer, unassigned) [M.22, 3-methyl-4-(1-ethyl-3-(pyridin-2-yl)-4,6,7,8-tetrahydro-1H-pyrazolo[3,4-e][1,4]thiazepin-4-yl)benzonitrile] | < 100 |  | > 70 |
| Cc1cc(OCC#N)ccc1[C@@H]1SC[C@@H](C)Nc2c1c(-c1ccccn1)nn2C (single isomer, unassigned) [M.23, 2-(4-(1,7-dimethyl-3-(pyridin-2-yl)-4,6,7,8-tetrahydro-1H-pyrazolo[3,4-e][1,4]thiazepin-4-yl)-3-methylphenoxy)acetonitrile] | < 100 |  | > 50 |
| Cc1cc(OCC(N)=O)ccc1[C@@H]1SC[C@@H](C)Nc2c1c(-c1ccccn1)nn2C (single isomer, unassigned) [M.24, 2-(4-(1,7-dimethyl-3-(pyridin-2-yl)-4,6,7,8-tetrahydro-1H-pyrazolo[3,4-e][1,4]thiazepin-4-yl)-3-methylphenoxy)acetamide] | < 100 |  | > 70 |
| CCn1nc(-c2ccccn2)c2c1N[C@H](C)CS[C@H]2c1ccc(C#CCO)cc1C (single isomer, unassigned) [M.27, 3-(4-(1-ethyl-7-methyl-3-(pyridin-2-yl)-4,6,7,8-tetrahydro-1H-pyrazolo[3,4-e][1,4]thiazepin-4-yl)-3-methylphenyl)prop-2-yn-1-ol] | < 100 |  | > 60 |
| CCn1nc(-c2ccccn2)c2c1N[C@@H](C)CS[C@H]2c1ccc(C#CCO)cc1C (single isomer, unassigned) [M.28, 3-(4-(1-ethyl-7-methyl-3-(pyridin-2-yl)-4,6,7,8-tetrahydro-1H-pyrazolo[3,4-e][1,4]thiazepin-4-yl)-3-methylphenyl)prop-2-yn-1-ol] | < 100 |  | > 60 |
| CCn1nc(-c2ccccn2)c2c1N[C@H](C)CS[C@H]2c1ccc(C#CC(C)(C)O)cc1C (single isomer, unassigned) [M.31, 4-(4-(1-ethyl-7-methyl-3-(pyridin-2-yl)-4,6,7,8-tetrahydro-1H-pyrazolo[3,4-e][1,4]thiazepin-4-yl)-3-methylphenyl)-2-methylbut-3-yn-2-ol] | < 100 |  | > 70 |
| CCn1nc(-c2ccccn2)c2c1N[C@@H](C)CS[C@H]2c1ccc(C#CC(C)(C)O)cc1C (single isomer, unassigned) [M.32, 4-(4-(1-ethyl-7-methyl-3-(pyridin-2-yl)-4,6,7,8-tetrahydro-1H-pyrazolo[3,4-e][1,4]thiazepin-4-yl)-3-methylphenyl)-2-methylbut-3-yn-2-ol] | < 100 |  | > 70 |
| CCn1nc(-c2ccccn2)c2c1N[C@H](C)CS[C@H]2c1ccc(CCCO)cc1C (single isomer, unassigned) [M.35, 3-(4-(1-ethyl-7-methyl-3-(pyridin-2-yl)-4,6,7,8-tetrahydro-1H-pyrazolo[3,4-e][1,4]thiazepin-4-yl)-3-methylphenyl)propan-1-ol] | < 100 |  | > 70 |

— US9150592B2, “Heterocyclic nuclear hormone receptor modulators” (AbbVie Inc., priority 2012, dated 2015)
